Assay results published in ChEMBL document CHEMBL1137933, “Pseudodeflectusin, a novel isochroman derivative from Aspergillus pseudodeflectus a parasite of the sea weed, Sargassum fusiform, as a selective human cancer cytotoxin” (Bioorg Med Chem Lett, 2004).

How the values were obtained:
Gamma-secretase = test: Inhibition of human gamma-secretase activity; assay type: protein-complex assay
Mus musculus [1] = test: Compound was tested for reduction in brain Abeta-protein level of Tg2576 mice 3h after oral administration at 200 umol/kg; assay type: functional
Mus musculus [2] = test: Compound was tested for reduction in plasma level of Tg2576 mice 3h after oral administration at 200 umol/kg; assay type: functional
Mus musculus [3] = test: Compound was tested for reduction in Abeta-protein levels in brain of Tg2576 mice 3h after oral administration at 200 umol/kg; assay type: functional
Mus musculus [4] = test: Compound was tested for reduction in Abeta-protein levels in brain after 3 hr in Tg2576 beta-APP-swedish transgenic mice at a single dose of 200 umol/kg; assay type: functional
Mus musculus [5] = test: Compound was tested for reduction in Abeta-protein levels in plasma of Tg2576 beta-APP-swedish transgenic mice at a single dose of 200 umol/kg; assay type: functional
Mus musculus [6] = test: Compound was tested for reduction in Abeta-protein levels in the CNS of Tg2576 beta-APP-swedish transgenic mice after oral administration; assay type: functional, Central nervous system

IC50 (Gamma-secretase) [nM] | Compound | also measured
140 | CC(C)N1C(=O)c2ccccc2C(NC(=O)[C@H](C)NC(=O)Cc2ccccc2)C(=O)N1C (stereo not given in full) | –
> 2500 | CC(C)N1C(=O)c2ccccc2C(NC(=O)[C@H](C)NC(=O)Cc2cc(C(F)(F)F)cc(C(F)(F)F)c2)C(=O)N1C (stereo not given in full) | –
38 | CC(C)N1C(=O)c2ccccc2C(NC(=O)[C@H](C)NC(=O)Cc2ccoc2)C(=O)N1C (stereo not given in full) | –
4 | CC(C)C[C@H](NC(=O)Cc1ccsc1)C(=O)NC1C(=O)N(C)N(C(C)C)C(=O)c2ccccc21 (stereo not given in full) | –
> 2500 | CC(C)N1C(=O)c2ccccc2C(NC(=O)[C@H](C)NC(=O)Cc2ccncc2)C(=O)N1C (stereo not given in full) | –
6 | CCCCN(C)C(=O)[C@H](CC1CCCCC1)NC(=O)[C@H](CC(C)C)NC(=O)Cc1cc(F)cc(F)c1 | –
720 | CC(C)C[C@H](NC(=O)Cc1cc(F)cc(F)c1)C(=O)Nc1cnc(-c2ccccc2)n(C)c1=O | –
1500 | CC(C)C[C@H](NC(=O)Cc1cc(F)cc(F)c1)C(=O)NC1C(=O)N(C)C(c2ccccc2)=NC1(C)C (stereo not given in full) | –
190 | CC(C)[C@H](NC(=O)Cc1cc(F)cc(F)c1)C(=O)NC1C(=O)N(C)N(C(C)C)C(=O)c2ccccc21 (stereo not given in full) | –
86 | CC(C)N1C(=O)c2ccccc2C(NC(=O)[C@H](C)NC(=O)Cc2ccco2)C(=O)N1C (stereo not given in full) | –
37 | CC(C)C[C@H](NC(=O)Cc1cc(F)cc(F)c1)C(=O)NC1C(=O)N(C)N(C(C)C)C(=O)c2ccccc21 (stereo not given in full) | –
76 | C[C@H](NC(=O)Cc1cc(F)cc(F)c1)C(=O)NC1C(=O)N(C)c2ccccc2-c2ccccc21 (stereo not given in full) | –
> 2500 | CC(C)N1C(=O)c2ccccc2C(NC(=O)[C@H](C)NC(=O)Cc2cccnc2)C(=O)N1C (stereo not given in full) | –
71 | CC(C)C[C@H](NC(=O)[C@@H](O)c1ccccc1)C(=O)N[C@H]1c2ccccc2C[C@H]1O | –
14 | CC(C)N1C(=O)c2ccccc2C(NC(=O)[C@H](C)NC(=O)Cc2ccsc2)C(=O)N1C (stereo not given in full) | –
5 | CC(C)N1C(=O)c2ccccc2C(NC(=O)[C@H](C)NC(=O)[C@@H](O)c2cc(F)cc(F)c2)C(=O)N1C (stereo not given in full) | –
> 2500 | CC(C)N1C(=O)c2ccccc2C(NC(=O)[C@H](C)NC(=O)Cc2cccc3ccccc23)C(=O)N1C (stereo not given in full) | –
57 | CC(C)N1C(=O)c2ccccc2C(NC(=O)[C@H](C)NC(=O)Cc2cccc(F)c2)C(=O)N1C (stereo not given in full) | –
47 | CC(C)N1C(=O)c2ccccc2C(NC(=O)[C@H](C)NC(=O)Cc2cc(F)cc(F)c2)C(=O)N1C (stereo not given in full) | –
> 2500 | COc1cc(CC(=O)N[C@@H](C)C(=O)NC2C(=O)N(C)N(C(C)C)C(=O)c3ccccc32)cc(OC)c1 (stereo not given in full) | –
150 | CC(C)N1C(=O)c2ccccc2C(NC(=O)[C@H](C)NC(=O)CC2CCCCC2)C(=O)N1C (stereo not given in full) | –

Compound | IC50 (Gamma-secretase) [nM] | also measured
C[C@H](NC(=O)Cc1cc(F)cc(F)c1)C(=O)NC1N=C(c2ccccc2)c2ccccc2N(C)C1=O (stereo not given in full) | 210 | –
C[C@H](NC(=O)Cc1cc(F)cc(F)c1)C(=O)NC1C(=O)N(C)N(C)C(=O)c2ccccc21 (stereo not given in full) | 5 | Activity (Mus musculus [1]): 77 nM; Activity (Mus musculus [2]): 2987 nM; Reduction (Mus musculus [3]): 43%
CCCCN(C)C(=O)[C@H](CC1CCCCC1)NC(=O)[C@H](CC(C)C)NC(=O)[C@@H](O)c1ccccc1 | 1 | Activity (Mus musculus [4]): 65 nM; Activity (Mus musculus [5]): 1833 nM; Reduction (Mus musculus [6]): 15%
